Assay results published in ChEMBL document CHEMBL1137785, “Discovery of geranylgeranyltransferase-I inhibitors with novel scaffolds by the means of quantitative structure-activity relationship modeling, virtual screening, and experimental validation” (J Med Chem, 2009).

assay: Displacement of [3H]GGpp from GGTase1 expressed in Sf9 cells; settings: not given

SMILES	pIC50	IC50 [µM]
Cc1ccc(C(CC(N)=O)NC(=O)CCCOc2c(CCCO)c(-c3cccnc3)nn2-c2ccc(Cl)c(Cl)c2)cc1 (stereo not given)	7.17	–
NC(=O)CC(NC(=O)CCCOc1cc(-c2cccnc2)nn1-c1ccc(Cl)c(Cl)c1)c1ccc(-c2ccccc2)cc1 (stereo not given)	6.21	–
O=C(O)C[C@H](Cc1c[nH]c2ccccc12)NC(=O)Cn1c(=O)[nH]c2ccccc2c1=O	–	> 100
CSCCCc1c(-c2cccnc2)nn(-c2ccc(Cl)c(Cl)c2)c1OCCCC(=O)NC(CC(N)=O)c1ccc(C)cc1 (stereo not given)	7.55	–
Cc1ccc(CN(CC(N)=O)C(=O)CCCCc2cc(-c3cccnc3)nn2-c2ccc(Cl)c(Cl)c2)cc1	4.53	–
Cc1ccc(C(CC(N)=O)NC(=O)CCNCc2cc(-c3cccnc3)nn2-c2ccc(Cl)c(Cl)c2)cc1 (stereo not given)	6.35	–
Cc1ccc(C(CO)NC(=O)c2ccc(-c3cc(-c4cccnc4)nn3-c3ccc(Cl)c(Cl)c3)s2)cc1 (stereo not given)	5.11	–
Cc1ccc(C(NC(N)=O)NC(=O)CCCOc2cc(-c3cccnc3)nn2-c2ccc(Cl)c(Cl)c2)cc1 (stereo not given)	5.4	–
Cc1ccc(C(NC(=O)CCCOc2cc(-c3cccnc3)nn2-c2ccc(Cl)c(Cl)c2)C(=N)N)cc1 (stereo not given)	5.97	–
CCCOc1ccc(-c2nn(-c3ccccc3)cc2/C=N/NC(=O)CNC(=O)c2cccc(Cl)c2)cc1	4.02	–
CC(C)c1ccc(N(CC(=O)NCc2ccccc2)C(=O)Cn2nnc(-c3ccc(Cl)cc3)n2)cc1	4.19	–
Cc1ccc(-c2cc(NCNCCCCS)ccc2C(=O)N[C@@H](CCC(C)C)C(=O)O)cc1	6.68	–
Cc1ccc(C(CC(N)=O)NC(=O)CC(=O)Nc2cc(-c3cccnc3)nn2-c2ccc(Cl)c(Cl)c2)cc1 (stereo not given)	5.58	–
CCCC(C(=O)NCc1ccccc1)N(Cc1ccccc1Cl)C(=O)Cn1nnc(-c2ccc(Cl)cc2)n1 (stereo not given)	4.43	–
Cc1ccc(C(CC(N)=O)NC(=O)CC(=O)CNc2cc(-c3cccnc3)nn2-c2ccc(Cl)c(Cl)c2)cc1 (stereo not given)	5.23	–
Cc1ccc(C(CC(N)=O)NC(=O)CC(=O)COc2cc(-c3cccnc3)nn2-c2ccc(Cl)c(Cl)c2)cc1 (stereo not given)	4.86	–
COc1ccc(OCc2nnc(SCC(=O)Nc3ccc(C(N)=O)cc3)n2CCc2ccccc2)cc1	5.56	–
Cc1ccc(C(=O)N/C(=C/c2ccc(-c3ccc(Cl)c(Cl)c3)o2)C(=O)NCc2ccccc2)cc1	3.84	–
NC(=O)CC(NC(=O)c1ccc(-c2cc(-c3cccnc3)nn2-c2ccc(Cl)c(Cl)c2)cc1)OCc1ccccc1 (stereo not given)	5.63	–
NC(=O)CC(NC(=O)CCCNc1cc(-c2cccnc2)nn1-c1ccc(Cl)c(Cl)c1)c1cccnc1 (stereo not given)	6.32	–
CCN(CCCC(=O)NC(CC(N)=O)c1ccc(C)cc1)c1cc(-c2cccnc2)nn1-c1ccc(Cl)c(Cl)c1 (stereo not given)	5.7	–
Cc1ccc(C(CC(N)=O)NC(=O)CC[C@H](C)Nc2cc(-c3cccnc3)nn2-c2ccc(Cl)c(Cl)c2)cc1 (stereo not given in full)	6.23	–
Cc1ccc(C(=O)N/C(=C\c2ccc(-c3ccc(Cl)c(Cl)c3)o2)C(=O)NCc2ccccc2)cc1	5.56	–
Cc1ccc(C(CC(N)=O)NC(=O)c2ccc(-c3cc(-c4cccnc4)nn3CCc3ccccc3)s2)cc1 (stereo not given)	4.02	–

SMILES	pIC50	IC50 [µM]
CCCn1c(COc2ccc(C(C)Cc3ccccc3)cc2)nnc1SCC(=O)Nc1ccc(C(N)=O)cc1 (stereo not given)	4.19	–
Cc1ccc([C@@H](CC(N)=O)NC(=O)c2ccc(-c3cc(-c4cccnc4)nn3-c3ccc(Cl)c(Cl)c3)s2)cc1	4.68	–
Cc1ccc(C(CC(N)=O)NC(=O)C[C@H](O)COc2cc(-c3cccnc3)nn2-c2ccc(Cl)c(Cl)c2)cc1 (stereo not given in full)	5.79	–
Cc1ccc(C(CC(N)=O)NC(=O)CCCCOc2cc(-c3cccnc3)nn2-c2ccc(Cl)c(Cl)c2)cc1 (stereo not given)	5.53	–
Cc1ccc(C(NC(=O)c2ccc(-c3cc(-c4cccnc4)nn3-c3ccc(Cl)c(Cl)c3)s2)C(O)C(N)=O)cc1 (stereo not given)	5.08	–
Cc1ccc(CCN(CC(N)=O)C(=O)CCCOc2cc(-c3cccnc3)nn2-c2ccc(Cl)c(Cl)c2)cc1	5.82	–
NC(=O)CC(NC(=O)c1ccc(-c2cc(-c3cccnc3)nn2-c2ccc(Cl)c(Cl)c2)s1)OCc1ccccc1 (stereo not given)	5.57	–
Cc1ccc([C@@H](CC(N)=O)NC(=O)c2ccc(-c3cc(-c4cccnc4)nn3-c3ccc(Cl)c(Cl)c3)cc2)cc1	3.84	–
CCN(C(=O)CCCOc1cc(-c2cccnc2)nn1-c1ccc(Cl)c(Cl)c1)C(CC(N)=O)c1ccc(C)cc1 (stereo not given)	6.27	–
Cc1ccc(C(CC(N)=O)NC(=O)[C@H]2C[C@H](c3cc(-c4cccnc4)nn3-c3ccc(Cl)c(Cl)c3)C2(C)C)cc1 (stereo not given in full)	5.94	–
Cc1ccc(C(CC(N)=O)NC(=O)CCCN(CCN2CCOCC2)c2cc(-c3cccnc3)nn2-c2ccc(Cl)c(Cl)c2)cc1 (stereo not given)	5.09	–
Cc1ccc(C(CC(N)=O)NC(=O)C2CCCN(Cc3cc(-c4cccnc4)nn3-c3ccc(Cl)c(Cl)c3)C2)cc1 (stereo not given)	4.3	–
COCCN(CCC(=O)NC(CC(N)=O)c1ccc(C)cc1)Cc1cc(-c2cccnc2)nn1-c1ccc(Cl)c(Cl)c1 (stereo not given)	7	–
Cc1ccc(C(CC(N)=O)NC(=O)c2ccc(-c3cc(-c4cccnc4)nn3-c3ccc(Cl)c(Cl)c3)s2)cc1 (stereo not given)	4.35	–
Cc1ccc(C(CC(N)=O)NC(=O)COc2cc(-c3cccnc3)nn2-c2ccc(Cl)c(Cl)c2)cc1 (stereo not given)	4.43	–
NC(=O)CN(CC1CCCCC1)C(=O)CCCOc1cc(-c2cccnc2)nn1-c1ccc(Cl)c(Cl)c1	5.84	–
Cc1ccc(-c2nn(-c3ccccc3)cc2/C=N/NC(=O)C(=O)Nc2cc(Cl)ccc2Cl)cc1	4.43	–
CCCC[C@H](NC(=O)c1ccc(NCNCCCCS)cc1-c1ccccc1)C(=O)O	7.14	–
Cc1ccc(C(CC(=O)O)NC(=O)c2ccc(-c3cc(-c4cccnc4)nn3-c3ccc(Cl)c(Cl)c3)s2)cc1 (stereo not given)	5.73	–
Cc1ccc(C(CC(N)=O)NC(=O)c2ccc(-c3cc(-c4cccnc4)nn3-c3ccc(Cl)c(Cl)c3)cc2)cc1 (stereo not given)	5.82	–
O=C(Cn1c(=O)n(Cc2c[nH]cn2)c(=O)c2ccccc21)N[C@@H](Cc1ccccc1)C(=O)O	5.77	–
O=C(O)CNC(=O)[C@H](Cc1c[nH]c2ccccc12)NC(=O)Cn1c(=O)[nH]c2ccccc2c1=O	–	> 100
COc1ccccc1-c1nnc(SCC(=O)Nc2ccc(C(N)=O)cc2)n1CCc1ccccc1	5.56	–

same assay, conditions: read-out: IC50

SMILES	IC50 [µM]
CCc1ccc(OCc2nnc(SCC(=O)Nc3ccc(C(N)=O)cc3)n2C(C)c2ccccc2)cc1 (stereo not given)	43
CC[C@@H](C(=O)NCc1ccccc1)N(Cc1ccccc1Cl)C(=O)Cn1nnc(-c2ccc(C)cc2)n1	35
Cc1ccc(C(=O)N/C(=C/c2ccc(-c3ccc(Cl)c(Cl)c3)o2)C(=O)NCc2ccccc2)cc1	8
